The values that follow come from publication PMC6792352, “Limited Chemical Structural Diversity Found to Modulate Thyroid Hormone Receptor in the Tox21 Chemical Library” (Environmental Health Perspectives, 2019).

What is called CC50 is the concentration at which the toxic effect on the cells reaches its halfway point. The low end stands for greater toxicity to the cells, the high end for lower toxicity to the cells.

Structures can show the parent of a compound that is named as a salt. Starred links: 1 amine or outer side, 2 acyl side, 3 side chain; linkers in the order of their positions; H or OH if unused. Positions of bridges follow the written chain, without caps; N, C: chain ends. Non-standard residues stand in square brackets, D forms with d. Residues, ends and D or L forms follow the SMILES beside them. *: point of attachment. X1 = NC1=N[C@@H]([C@H](N[*:1])C(=O)[*:2])C[C@H](O)N1; ΔAla(Z-3-ureido) = NC(=O)N/C=C(\N)C(=O)O; β3hOrn = NCCC[C@H](N)CC(=O)*; Dap = NC[C@H](N)C(=O)O

The first series is described as follows: in vitro. Particulars: rat, gh3-tre-luc cells, AC50 (uM) modified / 1000.
As to `Clc1ccc(Nc2nnc(Cc3ccncc3)c3ccccc23)cc1` [Vatalanib], the CC50 at 24 h was greater than 50 µM.

For `CC(=O)O[C@H]1C[C@@H]2CC[C@@H]3[C@H](CC[C@@]4(C)[C@H]3C[C@H]([N+]3(C)CCCCC3)[C@@H]4OC(C)=O)[C@@]2(C)C[C@@H]1N1CCCCC1` [Vecuronium bromide], the CC50 at 24 h was greater than 50 µM.

`COc1ccc(C(CN(C)C)C2(O)CCCCC2)cc1` (stereo not shown) [Venlafaxine hydrochloride] returned a CC50 at 24 h greater than 90 µM.

In turn, `C=CCN1CCCC1CNC(=O)c1cc(S(N)(=O)=O)cc(OC)c1OC` (stereo not shown) [Veralipride] yielded a CC50 at 24 h greater than 50 µM.

With `COc1ccc(CCN(C)CCCC(C#N)(c2ccc(OC)c(OC)c2)C(C)C)cc1OC` (stereo not shown) [Verapamil hydrochloride], half-maximal cytotoxicity (CC50 at 24 h) was put at 24.5 µM.

As for `COc1ccc(/C=N/NC(=O)c2ccncc2)cc1OC` [Verazide], the 50% cytotoxic concentration (CC50) at 24 h is greater than 50 µM.

As to `COC[C@@H](c1ccc(C(F)(F)F)cc1)N1CCN(C2(C)CCN(C(=O)c3c(C)ncnc3C)CC2)C[C@@H]1C` [Vicriviroc maleate], the CC50 at 24 h was greater than 50 µM.

On to `C=CC(N)CCC(=O)O` (stereo not shown) [Vigabatrin], for which the CC50 at 24 h is greater than 50 µM.

`CC[C@]12CCCN3CCc4c(n(c5ccccc45)[C@@](O)(C(=O)OC)C1)[C@@H]32` [Vincamine]: half-maximal cytotoxicity (CC50 at 24 h) was put at 65.8 µM.

With `C=CC1(C)OC(=O)N(c2cc(Cl)cc(Cl)c2)C1=O` (stereo not shown) [Vinclozolin], the CC50 at 24 h was greater than 90 µM.

Molecule `CC[C@]1(O)C[C@H]2CN(CCc3c([nH]c4ccccc34)[C@@](C(=O)OC)(c3cc4c(cc3OC)N(C=O)[C@H]3[C@@](O)(C(=O)OC)[C@H](OC(C)=O)[C@]5(CC)C=CCN6CC[C@]43[C@@H]65)C2)C1` [Vincristine] came in with a CC50 at 24 h of 0.12 µM.

In the case of `CC[C@]1(O)C[C@H]2CN(CCc3c([nH]c4ccccc34)[C@@](C(=O)OC)(c3cc4c(cc3OC)N(C)[C@H]3[C@@](O)(C(N)=O)[C@H](O)[C@]5(CC)C=CCN6CC[C@]43[C@@H]65)C2)C1` [Vindesine sulfate salt], the CC50 at 24 h was found to be 0.425 µM.

On to `CCC1=C[C@@H]2CN(C1)Cc1c([nH]c3ccccc13)[C@@](C(=O)OC)(c1cc3c(cc1OC)N(C)[C@H]1[C@@](O)(C(=O)OC)[C@H](OC(C)=O)[C@]4(CC)C=CCN5CC[C@]31[C@@H]54)C2` [Vinorelbine tartrate], for which the CC50 at 24 h amounted to 6.67 µM.

In turn, `C=COC(C)=O` [Vinyl acetate] gave a CC50 at 24 h greater than 90 µM.

Take `C=COCC(C)C` [Vinyl isobutyl ether]: the CC50 at 24 h is greater than 100 µM.

With `C=COC(=O)C(C)(C)CCCCCC` [Vinyl neodecanoate], the CC50 at 24 h is greater than 90 µM.

Turning to `C=C[Si](OC)(OC)OC` [Vinyltrimethoxysilane], the CC50 at 24 h is greater than 90 µM.

Turning to `NCCC[C@H](N)CC(=O)N[C@H]1CNC(=O)[C@H]([C@H]2C[C@H](O)NC(N)=N2)NC(=O)/C(=C/NC(N)=O)NC(=O)[C@H](CO)NC(=O)[C@H](CO)NC1=O` [Viomycin sulfate] (β3hOrn-[Dap]SS[ΔAla(Z-3-ureido)][X1]; lactam 1-C), the CC50 at 24 h was greater than 50 µM.

For `CC[C@H]1NC(=O)[C@@H](NC(=O)c2ncccc2O)[C@@H](C)OC(=O)[C@H](c2ccccc2)NC(=O)[C@@H]2CC(=O)CCN2C(=O)[C@H](Cc2ccccc2)N(C)C(=O)[C@@H]2CCCN2C1=O` [Virginiamycin S1], the CC50 at 24 h was greater than 50 µM.

Molecule `OCC(CO)N[C@H]1C[C@](O)(CO)[C@@H](O)[C@H](O)[C@H]1O` [Voglibose] returned a CC50 at 24 h greater than 50 µM.

Turning to `C[C@@H](c1ncncc1F)[C@](O)(Cn1cncn1)c1ccc(F)cc1F` [Voriconazole], the CC50 at 24 h is greater than 50 µM.

Regarding `CC(=O)CC(c1ccccc1)c1c(O)c2ccccc2oc1=O` (stereo not shown) [Warfarin], the CC50 at 24 h is greater than 90 µM.

Molecule `FC(F)(F)c1cccc(C2=CCN(CCc3ccc4ccccc4c3)CC2)c1` [Xaliproden hydrochloride] displayed a CC50 at 24 h greater than 50 µM.

The molecule `O=C(NCCNCC(O)COc1ccc(O)cc1)N1CCOCC1` (stereo not shown) [Xamoterol] registered a 50% cytotoxic concentration (CC50) at 24 h greater than 50 µM.

For the molecule `CN(CCO)CC(O)Cn1cnc2c1c(=O)n(C)c(=O)n2C` (stereo not shown) [Xanthinol niacinate], the CC50 at 24 h was greater than 50 µM.

`O=c1c2ccccc2oc2ccccc12` [Xanthone] gave a CC50 at 24 h greater than 90 µM.

`O=C(O)c1ccccc1-c1ccc(C(F)(F)F)cc1` [Xenalipin]: the CC50 at 24 h is greater than 50 µM.

Molecule `Cc1cccc(C)c1NC(=O)/N=C1\CCCN1C` [Xilobam] displayed a CC50 at 24 h greater than 50 µM.

Molecule `CCOC(=O)CN[C@@H](C(=O)N1CC[C@H]1C(=O)NCc1ccc(/C(N)=N\O)cc1)C1CCCCC1` [Ximelagatran] returned a CC50 at 24 h greater than 50 µM.

The molecule `Cc1cccc(C)c1NC(=O)c1cc(S(N)(=O)=O)c(Cl)cc1O` [Xipamide] displayed a CC50 at 24 h greater than 50 µM.

On to `OC[C@@H](O)C(O)[C@@H](O)CO` (stereo partly shown) [Xylitol], for which the CC50 at 24 h was greater than 90 µM.

On to `Cc1cc(C(C)(C)C)cc(C)c1CC1=NCCN1` [Xylometazoline hydrochloride], for which the CC50 at 24 h is greater than 20 µM.

For `Cc1occc1C(=O)Nc1ccc(C(=O)N2CCC(F)(F)/C(=C\C(=O)N3CCC(N4CCCCC4)CC3)c3ccccc32)cc1` [YM218], half-maximal cytotoxicity (CC50 at 24 h) was put at 11.8 µM.

The molecule `COc1ccc(/C=C/c2cc(OC)cc(=O)o2)cc1` [Yangonin] showed a CC50 at 24 h greater than 40 µM.

With `O=C(O)[C@@H]1[C@H]2C[C@H]3c4[nH]c5ccccc5c4CCN3C[C@@H]2CC[C@@H]1O` [Yohimbic acid monohydrate], the CC50 at 24 h was greater than 20 µM.

Turning to `COC(=O)[C@@H]1[C@H]2C[C@H]3c4[nH]c5ccccc5c4CCN3C[C@@H]2CC[C@@H]1O` [Yohimbine], the CC50 at 24 h is greater than 50 µM.

The molecule `O=C(O)Cc1ccc(OCCNC[C@H](O)c2ccccc2)cc1` [ZD 2079] had a CC50 at 24 h greater than 50 µM.

Consider `COc1cc(N)c(Cl)cc1C(=O)NC1CN2CCC1CC2` (stereo not shown) [Zacopride hydrochloride], for which the CC50 at 24 h is greater than 50 µM.

As to `COc1cc(C(=O)NS(=O)(=O)c2ccccc2C)ccc1Cc1cn(C)c2ccc(NC(=O)OC3CCCC3)cc12` [Zafirlukast], it took 28.8 µM to reach half-maximal cytotoxicity (CC50 at 24 h).

The molecule `CC1(CN2CCC(n3c(=O)[nH]c4ccccc43)CC2)OCc2ccccc2-n2cccc21` (stereo not shown) [Zaldaride] registered a CC50 at 24 h of 32.7 µM.

Regarding `CC(C(=O)O)c1ccc2c(c1)CC(=O)c1ccccc1S2` (stereo not shown) [Zaltoprofen], the CC50 at 24 h was greater than 50 µM.

Molecule `c1ccc(C(O[C@@H]2CCCN(CCc3ccc4c(c3)OCO4)C2)c2ccccc2)cc1` [Zamifenacin fumarate] returned a CC50 at 24 h of 26.4 µM.

On to `CC(=O)N[C@H]1[C@H]([C@H](O)[C@H](O)CO)OC(C(=O)O)=C[C@@H]1N=C(N)N` [Zanamivir], for which the CC50 at 24 h was greater than 50 µM.

`O=C(CCC1CCN(Cc2ccccc2)CC1)c1ccc2c(c1)NCCCC2` [Zanapezil fumerate] yielded a CC50 at 24 h greater than 50 µM.

In turn, `CCCOc1ccccc1-c1nc2nn[nH]c2c(=O)[nH]1` [Zaprinast] gave a CC50 at 24 h greater than 50 µM.

For `COc1cc(-c2ccc(=O)[nH]n2)ccc1OC(F)F` [Zardaverine], the CC50 at 24 h is greater than 50 µM.

In turn, `COc1ccc(CCN(C)CCCN2CCc3cc(OC)c(OC)cc3CC2=O)cc1OC` [Zatebradine hydrochloride] had a CC50 at 24 h greater than 50 µM.

Consider `CC1=C(/C=C/C(C)=C/C=C/C(C)=C/C=C/C=C(C)/C=C/C=C(C)/C=C/C2=C(C)C[C@@H](O)CC2(C)C)C(C)(C)C[C@H](O)C1` [Zeaxanthin], for which it took 28.9 µM to reach half-maximal cytotoxicity (CC50 at 24 h).

`Oc1ccc([C@@H]2CNCc3c2ccc(O)c3O)cc1O` [Zelandopam] registered a CC50 at 24 h of 39.3 µM.

The molecule `O=C(O)Cn1c(=O)n(Cc2ccc(Br)cc2F)c(=O)c2ccc(Cl)cc21` [Zenarestat] gave a CC50 at 24 h greater than 90 µM.

The molecule `CC(c1cc2ccccc2s1)N(O)C(N)=O` (stereo not shown) [Zileuton] returned a CC50 at 24 h greater than 90 µM.

`CN(C)C/C=C(/c1ccc(Br)cc1)c1cccnc1` [Zimeldine dihydrochloride hydrate] showed a CC50 at 24 h of 35.2 µM.

The molecule `Cc1c(C(N)=O)cc([N+](=O)[O-])cc1[N+](=O)[O-]` [Zoalene] showed a CC50 at 24 h greater than 90 µM.

`C[C@H](CSC(=O)c1ccccc1)C(=O)N1C[C@@H](Sc2ccccc2)C[C@H]1C(=O)O` [Zofenopril] registered a CC50 at 24 h greater than 50 µM.

Consider `c1cc(CN2CCCCC2)cc(OCCCNc2nc3ccccc3s2)c1` [Zolantidine dimaleate], for which the CC50 at 24 h amounted to 8.26 µM.

Molecule `O=P(O)(O)C(O)(Cn1ccnc1)P(=O)(O)O` [Zoledronate] showed a CC50 at 24 h greater than 50 µM.

The molecule `CN(C)CCc1c[nH]c2ccc(C[C@H]3COC(=O)N3)cc12` [Zolmitriptan] had a CC50 at 24 h greater than 50 µM.

For `Cc1ccc(-c2nc3ccc(C)cn3c2CC(=O)N(C)C)cc1` [Zolpidem], the CC50 at 24 h was greater than 50 µM.

`NS(=O)(=O)Cc1noc2ccccc12` [Zonisamide]: the CC50 at 24 h is greater than 50 µM.

The same series, now with this note: rat, gh3-tre-luc cells, AC50 (uM) modified / 1000, Tox21_110001=Tox21_110303; viability, 1 nM T3 present, 24 h.
`Cc1cccc(C)c1N=C1NCCCS1` [Xylazine] gave a CC50 at 24 h greater than 50 µM.

The series is the same for the next values; noted with them: rat, gh3-tre-luc cells, AC50 (uM) modified / 1000, Tox21_110001=Tox21_110973; viability, 1 nM T3 present, 24 h.
For `C[C@H]1CCC[C@H](O)CCCCCc2cc(O)cc(O)c2C(=O)O1` [Zearalanol], the CC50 at 24 h is greater than 50 µM.

The same series, now with this note: rat, gh3-tre-luc cells, AC50 (uM) modified / 1000, Tox21_110001=Tox21_111872; viability, 1 nM T3 present, 24 h.
In turn, `CCN(C(C)=O)c1cccc(-c2ccnc3c(C#N)cnn23)c1` [Zaleplon] had a CC50 at 24 h greater than 50 µM.

Still in this series, the particulars now being: rat, gh3-tre-luc cells, AC50 (uM) modified / 1000, Tox21_110001=Tox21_201153; viability, 1 nM T3 present, 24 h.
The molecule `C[C@H]1CCCC(=O)CCC/C=C/c2cc(O)cc(O)c2C(=O)O1` [Zearalenone] gave a CC50 at 24 h of 41.1 µM.

Still in this series, the particulars now being: rat, gh3-tre-luc cells, AC50 (uM) modified / 1000, Tox21_110001=Tox21_201203; viability, 1 nM T3 present, 24 h.
`C[C@H]1CCC[C@H](O)CCCCCc2cc(O)cc(O)c2C(=O)O1` [Zearalanol] came in with a CC50 at 24 h of 53.6 µM.

Still in this series, the particulars now being: rat, gh3-tre-luc cells, AC50 (uM) modified / 1000, Tox21_110001=Tox21_201566; viability, 1 nM T3 present, 24 h.
The molecule `COc1ccc(C=O)cc1OC` [Veratraldehyde] displayed a CC50 at 24 h greater than 90 µM.

The series is the same for the next values; noted with them: rat, gh3-tre-luc cells, AC50 (uM) modified / 1000, Tox21_110001=Tox21_301751; viability, 1 nM T3 present, 24 h.
Take `COP(=O)(OC)O/C(=C\Cl)c1cc(Cl)c(Cl)cc1Cl` [Z-Tetrachlorvinphos]: the CC50 at 24 h is greater than 90 µM.

Still in this series, the particulars now being: rat, gh3-tre-luc cells, AC50 (uM) modified / 1000, Tox21_110001=Tox21_303510; viability, 1 nM T3 present, 24 h.
`C[C@H]1CCCC(=O)CCC/C=C/c2cc(O)cc(O)c2C(=O)O1` [Zearalenone] showed a CC50 at 24 h of 23.5 µM.
